From patent publication US20260265189A1, “NOVEL COMPOUND, AND PHARMACEUTICAL COMPOSITION COMPRISING SAME AS ACTIVE INGREDIENT” (SAPIENSBIO INC., priority 2022, published 2026)

Test system: α-SMA expression in MRC5 cells
Assay: inhibition of α-SMA expression in MRC5 cells, image screening method
Format: cell-based
Conditions: Homo sapiens; MRC5, compound 10 μM, TGF-β1 5 ng/mL, 72 hours, relative to TGF-β1 alone; read-out: Inhibitory activity (α-SMA expression inhibition)
Experimental: The ability of the compounds according to the present invention to inhibit the expression of α-SMA, which is a biomarker for pulmonary fibrosis, was evaluated by an image screening method. MRC5 cells were treated with the compound (10 μM) or DMSO under the condition of TGF-31 (5 ng/mL). 72 hours later, the cells were fixed with a 4% formaldehyde solution, treated with a 0.1% Triton-x100 solution, and treated with a 1% BSA solution to mask non-specific binding caused by antibodies. Anti-α-SMA-FITC (Sigma Aldrich) and anti-GAPDH (Cell Signaling Technology) were used as primary antibodies, and anti-mouse-TRITC was used as a secondary antibody. Imaging and analysis of the results were performed using Cytation5_Gen5_Version 3.12.08 (Bio Tek). Relative to the α-SMA expression level when TGF-31 was treated alone, the α-SMA expression level when both the compound and TGF-31 were treated was calculated as the ability of α-SMA expression inhibition of the corresponding compound.

| SMILES | inhibition at 10 µM [%] |
| --- | --- |
| O=C(N[C@@H]1CCNC1)N1CCN(Cc2ccc(Cl)cc2)c2ccccc21 [Compound 95, (R)-4-(4-chlorobenzyl)-N-(pyrrolidin-3-yl)-3,4-dihydroquinoxaline-1(2H)-carboxamide] | ≥ 70 |
| CC(C)CN1CC[C@H](CNC(=O)N2CCN(c3ccc(F)cc3)c3ccccc32)C1 [Compound 56, (R)-4-(4-fluorophenyl)-N-((1-isobutylpyrrolidin-3-yl)methyl)-3,4-dihydroquinoxaline-1(2H)-carboxamide] | 30 to 50 |
| N[C@H]1CCN(C(=O)N2CCN(Cc3ccccc3)c3ccccc32)C1 [Compound 85, (S)-(3-aminopyrrolidin-1-yl)(4-benzyl-3,4-dihydroquinoxalin-1(2H)-yl)methanone] | 30 to 50 |
| O=C(N[C@@H]1CCNC1)N1CCN(C2CCCCC2)c2ccccc21 [Compound 104, (R)-4-cyclohexyl-N-(pyrrolidin-3-yl)-3,4-dihydroquinoxaline-1(2H)-carboxamide] | 10 to 30 |
| CC(C)CN[C@H]1CCN(C(=O)N2CCN(Cc3ccccn3)c3ccccc32)C1 [Compound 96, (S)-(3-(isobutylamino)pyrrolidin-1-yl)(4-(pyridin-2-ylmethyl)-3,4-dihydroquinoxalin-1(2H)-yl)methanone] | 30 to 50 |
| CC(C)N1CCC[C@@H]1CNC(=O)N1CCN(c2ccc(F)cc2)c2cc(F)ccc21 [Compound 23, (R)-6-fluoro-4-(4-fluorophenyl)-N-((1-isopropylpyrrolidin-2-yl)methyl)-3,4-dihydroquinoxaline-1(2H)-carboxamide] | ≥ 70 |
| CN1CC[C@@H](CNC(=O)N2CCN(c3ccc(F)cc3)c3cc(F)ccc32)C1 [Compound 25, (S)-6-fluoro-4-(4-fluorophenyl)-N-((1-methylpyrrolidin-3-yl)methyl)-3,4-dihydroquinoxaline-1(2H)-carboxamide] | 50 to 70 |
| O=C(NC1CNC1)N1CCN(c2ccc(F)cc2)c2cc(F)ccc21 [Compound 41, N-(azetidin-3-yl)-6-fluoro-4-(4-fluorophenyl)-3,4-dihydroquinoxaline-1(2H)-carboxamide] | 30 to 50 |
| N[C@H]1CCN(C(=O)N2CCN(c3ccc(F)cc3)c3cc(F)ccc32)C1 [Compound 11, (S)-(3-aminopyrrolidin-1-yl)(6-fluoro-4-(4-fluorophenyl)-3,4-dihydroquinoxalin-1(2H)-yl)methanone] | 30 to 50 |
| CS(=O)(=O)N1CC[C@@H](NC(=O)N2CCN(c3ccc(F)cc3)c3cc(F)ccc32)C1 [Compound 7, (R)-6-fluoro-4-(4-fluorophenyl)-N-(1-(methylsulfonyl)pyrrolidin-3-yl)-3,4-dihydroquinoxaline-1(2H)-carboxamide] | 10 to 30 |
| CC(C)CN1CC[C@H](CNC(=O)N2CCN(c3ccc(F)cc3)c3cc(F)ccc32)C1 [Compound 20, (R)-6-fluoro-4-(4-fluorophenyl)-N-((1-isobutylpyrrolidin-3-yl)methyl)-3,4-dihydroquinoxaline-1(2H)-carboxamide] | ≥ 70 |
| CC(C)N1CCC(CNC(=O)N2CCN(c3ccc(F)cc3)c3cc(F)ccc32)CC1 [Compound 36, 6-fluoro-4-(4-fluorophenyl)-N-((1-isopropylpiperidin-4-yl)methyl)-3,4-dihydroquinoxaline-1(2H)-carboxamide] | 50 to 70 |
| CN1CC[C@H](NC(=O)N2CCN(c3ccc(F)cc3)c3cc(F)ccc32)C1 [Compound 9, (S)-6-fluoro-4-(4-fluorophenyl)-N-(1-methylpyrrolidin-3-yl)-3,4-dihydroquinoxaline-1(2H)-carboxamide] | 50 to 70 |
| CN1CC[C@@H](NC(=O)N2CCN(Cc3ccccc3F)c3ccccc32)C1 [Compound 87, (R)-4-(2-fluorobenzyl)-N-(1-methylpyrrolidin-3-yl)-3,4-dihydroquinoxaline-1(2H)-carboxamide] | 50 to 70 |
| CC(C)(C)CC(=O)N1CCN(C(=O)NCC2CCNCC2)c2ccccc21 [Compound 130, 4-(3,3-dimethylbutanoyl)-N-(piperidin-4-ylmethyl)-3,4-dihydroquinoxaline-1(2H)-carboxamide] | 10 to 30 |
| CC(C)N[C@H]1CCN(C(=O)N2CCN(c3ccc(F)cc3)c3cc(F)ccc32)C1 [Compound 14, (S)-(6-fluoro-4-(4-fluorophenyl)-3,4-dihydroquinoxalin-1(2H)-yl)(3-(isopropylamino)pyrrolidin-1-yl)methanone] | 30 to 50 |
| CC(C)N1CC[C@@H](NC(=O)N2CCN(c3ccc(F)cc3)c3cc(F)ccc32)C1 [Compound 3, (R)-6-fluoro-4-(4-fluorophenyl)-N-(1-isopropylpyrrolidin-3-yl)-3,4-dihydroquinoxaline-1(2H)-carboxamide] | ≥ 70 |
| O=C(NCC1CCOC1)N1CCN(Cc2ccccn2)c2ccccc21 (centres unmarked) [Compound 100, 4-(pyridin-2-ylmethyl)-N-((tetrahydrofuran-3-yl)methyl)-3,4-dihydroquinoxaline-1(2H)-carboxamide] | 30 to 50 |

| SMILES | inhibition at 10 µM [%] |
| --- | --- |
| CC(=O)N[C@H]1CCN(C(=O)N2CCN(c3ccc(F)cc3)c3cc(F)ccc32)C1 [Compound 15, (S)-N-(1-(6-fluoro-4-(4-fluorophenyl)-1,2,3,4-tetrahydroquinoxaline-1-carbonyl)pyrrolidin-3-yl)acetamide] | 10 to 30 |
| CC(C)N1CC[C@H](NC(=O)N2CCN(c3ccccn3)c3ccccc32)C1 [Compound 69, (S)-N-(1-isopropylpyrrolidin-3-yl)-4-(pyridin-2-yl)-3,4-dihydroquinoxaline-1(2H)-carboxamide] | 10 to 30 |
| CC(C)CN1CC[C@@H](CNC(=O)N2CCN(c3ccc(F)cc3)c3ccccc32)C1 [Compound 60, (S)-4-(4-fluorophenyl)-N-((1-isobutylpyrrolidin-3-yl)methyl)-3,4-dihydroquinoxaline-1(2H)-carboxamide] | 50 to 70 |
| O=C(N1CCCCC1)N1CCN(c2ccccc2Cl)c2ccccc21 [Compound 66, (4-(2-chlorophenyl)-3,4-dihydroquinoxalin-1(2H)-yl)(piperidin-1-yl)methanone] | 50 to 70 |
| O=C(NCC1CCOCC1)N1CCN(c2ccc(F)cc2)c2ccccc21 [Compound 52, 4-(4-fluorophenyl)-N-((tetrahydro-2H-pyran-4-yl)methyl)-3,4-dihydroquinoxaline-1(2H)-carboxamide] | 10 to 30 |
| CC(C)CN1CC(CNC(=O)N2CCN(c3ccc(F)cc3)c3ccccc32)C1 [Compound 61, 4-(4-fluorophenyl)-N-((1-isobutylazetidin-3-yl)methyl)-3,4-dihydroquinoxaline-1(2H)-carboxamide] | 50 to 70 |
| CC(=O)N1CC[C@@H](NC(=O)N2CCN(c3ccc(F)cc3)c3cc(F)ccc32)C1 [Compound 6, (R)-N-(1-acetylpyrrolidin-3-yl)-6-fluoro-4-(4-fluorophenyl)-3,4-dihydroquinoxaline-1(2H)-carboxamide] | 10 to 30 |
| CC(C)CN1CC(NC(=O)N2CCN(c3ccc(F)cc3)c3cc(F)ccc32)C1 [Compound 43, 6-fluoro-4-(4-fluorophenyl)-N-(1-isobutylazetidin-3-yl)-3,4-dihydroquinoxaline-1(2H)-carboxamide] | ≥ 70 |
| O=C(N[C@H]1CCNC1)N1CCN(c2cnccn2)c2ccccc21 [Compound 80, (S)-4-(pyrazin-2-yl)-N-(pyrrolidin-3-yl)-3,4-dihydroquinoxaline-1(2H)-carboxamide] | 10 to 30 |
| O=C(NC[C@H]1CCNC1)N1CCN(c2ccc(F)cc2)c2cc(F)ccc21 [Compound 17, (S)-6-fluoro-4-(4-fluorophenyl)-N-(pyrrolidin-3-ylmethyl)-3,4-dihydroquinoxaline-1(2H)-carboxamide] | 30 to 50 |
| O=C(NC[C@H]1CCNC1)N1CCN(c2ccc(F)cc2)c2ccccc21 [Compound 53, (S)-4-(4-fluorophenyl)-N-(pyrrolidin-3-ylmethyl)-3,4-dihydroquinoxaline-1(2H)-carboxamide] | 10 to 30 |
| CC(C)N1CCC(NC(=O)N2CCN(c3ccc(F)cc3)c3cc(F)ccc32)CC1 [Compound 31, 6-fluoro-4-(4-fluorophenyl)-N-(1-isopropylpiperidin-4-yl)-3,4-dihydroquinoxaline-1(2H)-carboxamide] | 50 to 70 |
| CC(C)N1CC[C@@H](CNC(=O)N2CCN(c3ccc(F)cc3)c3ccccc32)C1 [Compound 59, (S)-4-(4-fluorophenyl)-N-((1-isopropylpyrrolidin-3-yl)methyl)-3,4-dihydroquinoxaline-1(2H)-carboxamide] | 30 to 50 |
| CC(C)N1CCC(CNC(=O)N2CCN(c3ccc(F)cc3)c3ccccc32)CC1 [Compound 63, 4-(4-fluorophenyl)-N-((1-isopropylpiperidin-4-yl)methyl)-3,4-dihydroquinoxaline-1(2H)-carboxamide] | 30 to 50 |
| O=C(N[C@@H]1CCNC1)N1CCN(c2ccc(F)cc2)c2cc(F)ccc21 [Compound 1, (R)-6-fluoro-4-(4-fluorophenyl)-N-(pyrrolidin-3-yl)-3,4-dihydroquinoxaline-1(2H)-carboxamide] | ≥ 70 |
| O=C(N[C@@H]1CCNC1)N1CCN(Cc2ccc(F)cc2)c2ccccc21 [Compound 91, (R)-4-(4-fluorobenzyl)-N-(pyrrolidin-3-yl)-3,4-dihydroquinoxaline-1(2H)-carboxamide] | 50 to 70 |
| O=C(N1CCCCC1)N1CCN(C2CCCCC2)c2ccccc21 [Compound 109, (4-cyclohexyl-3,4-dihydroquinoxalin-1(2H)-yl)(piperidin-1-yl)methanone] | 30 to 50 |
